Assay results: EP0103895A2, “Novel hydroxylamine derivatives, production and use thereof” (MEIJI SEIKA KABUSHIKI KAISHA, priority 1982, dated 1984)
Values joined by “and” are separate entries in the source; they are usually repeats but may differ in a detail not shown here. Identical values can stand only once. Like-named read-outs stand apart in the source and are kept apart here.

Assays:
[1] = system: fowl roundworm (Ascaridia galli); test: Anthelmintic test in chickens artificially infected with fowl roundworm, single oral dose in gelatin capsule, worm bodies counted within 48 hours (Test Examples A1, B1, C1, D1); format: in vivo; conditions: for inhibition in vivo at 30 mg/kg / inhibition in vivo at 50 mg/kg / inhibition in vivo at 15 mg/kg: Ascaridia galli, po, 48 h, read-out: Anthelmintic effect after 48 hours
Experimental: Chickens infected artificially with fowl roundworm (Ascaridia galli) were employed in groups each consisting of three chickens. Fecal matter testing was conducted before administration of medicine to confirm infection with the worm. The quantity of the compound provided for testing was 10 mg and 20 mg per Kg of body weight, which was orally administered each in a gelatin capsule to the chicken. The number of worm bodies discharged within 48 hours after administration of medicine was counted, the chicken was killed after 48 hours and the number of worm bodies remaining in the enteron was counted to determine the anthelmintic percentage, wherefrom the antihelmintic effect was judged.
The same as that in Test Example Al.
The same as that in Test Example Al except that the compound provided for testing was in quantities of 30 mg and 50 mg per Kg of body weight, which were orally administered to the chickens in gelatin capsules.
The same as that in Test Example Al, except that the compounds provided for testing were used in quantities of 15 mg and 30 mg per Kg of body weight, which were orally administered each in a gelatin capsule to the chicken.

[2] = system: fowl roundworm (As. galli); test: Anthelmintic test in chickens artificially infected with fowl roundworm, compound added to feed, E.P.G. and worm count up to 21st day (Test Examples A2, B2, C2, D2); format: in vivo, Ascaridia galli; conditions: for inhibition in vivo at 20 ppm / inhibition in vivo at 50 ppm / inhibition in vivo at 25 ppm: Ascaridia galli, 504 h, read-out: Anthelmintic effect; for Change of E.P.G. Before administration: baseline
Experimental: Chickens artificially infected with fowl roundworm (As. galli) were employed in groups each of two chickens.
Fecal matter testing was conducted before initiation of the test and on the 7th, 14th and 21st day after initiation of the test. Reduction in worm egg number was examined by calculating E.P.G. (worm eggs per 1 g of fecal matter), and the number of discharged worm bodies and the number of worm bodies remaining in the enteron when the chicken was killed on 21st day were counted to determine the anthelmintic percentage, from which the anthelmintic effect was judged.

[3] = system: canine filaria; Dirofilaria immitis; test: Test of anthelmintic effect against canine filaria in naturally infected dogs, subcutaneous injection, microfilaria in blood and adult filaria at autopsy (Test Examples A10, B10, C10, D10); format: in vivo
Experimental: Eight dogs infected with canine filaria; Diro- filaria immitis (naturally infected dogs) were employed in groups each of two dogs.
The compounds provided for tests were Compound Nos. Al, A3 and A12. 20 mg of each was administered by subcutaneous injection per Kg of body weight to each of the two dogs as a suspension in 1% "Tween 80" solution once per day for three days. As control, 3 ml of the 1% "Tween 80" solution was subcutaneously injected into two dogs once per day for three days.
Before administration and on the 10th day after administration, 20 µl of earlobe blood of each dog was sampled and examined to determine the change in microfilaria (mf) according to the concentrated smear color method, and judgement on the effect on microfilaria (mf) was made. Judgement relating to adult filaria was made on the 10th day after the last administration by killing the dogs and carrying out autopsis.
30 mg of each compound was administered by subcutaneous injection per Kg of body weight to each of the two dogs as a suspension in 1% "Tween 80" solution once per day for three days. As control, 3 ml of the 1% "Tween 80" solution was subcutaneously injected into two dogs once per day for three days.
30 mg of each compound was administered by subcutaneous injection per Kg of body weight to each of two dogs as a suspension in 1% "Tween 80" solution once per day for three days. As control, 3 ml of the 1% "Tween 80" solution was subcutaneously injected to two dogs once per day for three days.
20 mg of each compound was administered by subcutaneous injection per kg of body weight once per day for three days to each of two dogs. These compounds were administered as a suspension in 1% "Tween 80" in the case of Compound No.Dl3 and as solutions dissolved in distilled water for injection in the case of Compounds Nos. D10 and D16, respectively. As control, 3 ml of the 1% "Tween 80" solution was subcutaneously injected into two dogs once per day for three days.

[4] = chickens, 30 mg/Kg orally in gelatin capsule, one value per chicken (No.1-3)
[5] = chickens, 50 mg/Kg orally in gelatin capsule, one value per chicken (No.1-3)
[6] = po, chickens, 20 ppm added to feed, worm count on 21st day, one value per chicken
[7] = po, chickens, 50 ppm added to feed, worm count on 21st day, one value per chicken
[8] = chickens, 20 ppm added to feed, one value per chicken
[9] = chickens, 50 ppm added to feed, one value per chicken
[10] = chicken, 30 mg/Kg oral in gelatin capsule, chickens No.1-3
[11] = chicken, 50 mg/Kg oral in gelatin capsule, chickens No.1-3
[12] = feed or water, chicken, 25 ppm in feed
[13] = feed or water, chicken, 50 ppm in feed
[14] = chicken, 15 mg/Kg oral in gelatin capsule, chickens No.1-3

C=CCN(OC)C(=O)CC [Compound B2, N-allyl-N-propionyl-O-methylhydroxylamine]
inhibition in vivo at 30 mg/kg [1, 4]: 100% | inhibition in vivo at 50 mg/kg [1, 5]: 100% | inhibition in vivo at 20 ppm [2, 6]: 80 to 90% | inhibition in vivo at 50 ppm [2, 7]: 100%

C=CCN(OC)C(=O)CCC [Compound B3, N-allyl-N-butylyl-O-methylhydroxylamine]
Anthelmintic effect after 48 hours [1, 4]: +++ (100%) | Anthelmintic effect after 48 hours [1, 5]: +++ (100%) | anthelmintic effect ([2]; chickens, 20 ppm added to feed, worm count on 21st day, one value per chicken): ++ (80 - 90%) | Change of E.P.G. Before administration [2, 8]: 5,600 E.P.G. and 7,900 E.P.G. | Change of E.P.G. 7th day [2, 8]: 3.100 E.P.G. and 3,000 E.P.G. | anthelmintic effect ([2]; chickens, 50 ppm added to feed, worm count on 21st day, one value per chicken): +++ (100%) | Change of E.P.G. Before administration [2, 9]: 10,700 E.P.G. and 14,300 E.P.G. | Change of E.P.G. 21st day [2, 9]: 0 E.P.G.

C=CCN(OC)C(=O)CCCCCCC/C=C\CCCCCCCC [Compound B4, N-allyl-N-oleoyl-O-methylhydroxylamine]
inhibition in vivo at 30 mg/kg [1, 4]: 100% | inhibition in vivo at 50 mg/kg [1, 5]: 100% | inhibition in vivo at 20 ppm [2, 6]: 100% | inhibition in vivo at 50 ppm [2, 7]: 100%

C=CCN(C=O)OC [Compound B6, N-allyl-N-formyl-O-methylhydroxylamine]
inhibition in vivo at 30 mg/kg [1, 4]: 100% | inhibition in vivo at 50 mg/kg [1, 5]: 100% | inhibition in vivo at 20 ppm [2, 6]: 80 to 90% | inhibition in vivo at 50 ppm [2, 7]: 100%

CC=CCN(OC)C(C)=O [Compound B7, N-crotyl-N-acetyl-O-methylhydroxylamine]
inhibition in vivo at 30 mg/kg [1, 4]: 100% | inhibition in vivo at 50 mg/kg [1, 5]: 100%

C=CCN(OCC)C(=O)CC [Compound B9, N-allyl-N-propionyl-O-ethylhydroxylamine]
inhibition in vivo at 30 mg/kg [1, 4]: 100% | inhibition in vivo at 50 mg/kg [1, 5]: 100% | inhibition in vivo at 30 mg/kg ([3]; Dirofilaria immitis, sc, 240 h, dogs, administration of 30 mg/Kg repeated three times, given as about 50% or more, read-out: anthelmintic effect against adult filaria): ≥ 50% | Number of microfilaria/20 µl on 10th day after the last administration ([3]; dog, 30 mg/Kg x 3, subcutaneous injection, suspension in 1% Tween 80): 0 /20 µl | Effect on adult filaria: Number of worms killed/ Total parasite ([3]; dog, 30 mg/Kg x 3, subcutaneous injection, 30 mg/kg): 5/7 and 4/8 | anthelmintic effect against microfilaria (mf) ([3]; dogs, administration of 30 mg/Kg repeated three times): marked anthelmintic effect

C=CCN(OCC)C(=O)CCC [Compound B10, N-allyl-N-butylyl-0-ethylhydroxylamine]
inhibition in vivo at 30 mg/kg [1, 4]: 100% | inhibition in vivo at 50 mg/kg [1, 5]: 100%

C=CCN(OCC)C(=O)CC(C)C [Compound B11, N-allyl-N-isovaleroyl-O-ethylhydroxylamine]
inhibition in vivo at 30 mg/kg [1, 4]: 100% | inhibition in vivo at 50 mg/kg [1, 5]: 100%

C=CCN(OCC)C(=O)CCCCCCCCCCCCCCCCC [Compound B12, N-allyl-N-stearoyl-O-ethylhydroxylamine]
inhibition in vivo at 30 mg/kg [1, 4]: 100% | inhibition in vivo at 50 mg/kg [1, 5]: 100%

C=CCN(OCC)C(=O)c1ccccc1 [Compound B13, N-allyl-N-benzoyl-0-ethylhydroxylamine]
inhibition in vivo at 30 mg/kg [1, 4]: 100% | inhibition in vivo at 50 mg/kg [1, 5]: 100%

C=CCN(OCC)C(=O)c1ccc(F)cc1 [Compound B14, N-allyl-N-(p-fluorobenzoyl)-O-ethylhydroxylamine]
inhibition in vivo at 30 mg/kg [1, 4]: 100% | inhibition in vivo at 50 mg/kg [1, 5]: 100%

C=CCN(C=O)OCC [Compound B15, N-allyl-N-formyl-O-ethylhydroxylamine]
inhibition in vivo at 30 mg/kg [1, 4]: 100% | inhibition in vivo at 50 mg/kg [1, 5]: 100% | inhibition in vivo at 20 ppm [2, 6]: 80 to 90% | inhibition in vivo at 50 ppm [2, 7]: 100%

CC=CCN(OCC)C(C)=O [Compound B16, N-crotyl-N-acetyl-O-ethylhydroxylamine]
inhibition in vivo at 30 mg/kg [1, 4]: 100% | inhibition in vivo at 50 mg/kg [1, 5]: 100% | inhibition in vivo at 20 ppm [2, 6]: 100% | inhibition in vivo at 50 ppm [2, 7]: 100%

C=CCN(OCCC)C(C)=O [Compound B17, N-allyl-N-acetyl-O-propylhydroxylamine]
inhibition in vivo at 30 mg/kg [1, 4]: 100% | inhibition in vivo at 50 mg/kg [1, 5]: 100% | inhibition in vivo at 20 ppm [2, 6]: 80 to 90% | inhibition in vivo at 50 ppm [2, 7]: 100%

C=CCN(OCCCC)C(C)=O [Compound B18, N-allyl-N-acetyl-0-butylhydroxylamine]
inhibition in vivo at 30 mg/kg [1, 4]: 100% | inhibition in vivo at 50 mg/kg [1, 5]: 100% | inhibition in vivo at 20 ppm [2, 6]: 100% | inhibition in vivo at 50 ppm [2, 7]: 100%

C=CCON(CC=C)C(=O)CCCCCCCCCCCCCCCCC [Compound C5]
inhibition in vivo at 30 mg/kg [1, 10]: 80 to 90% | inhibition in vivo at 50 mg/kg [1, 11]: 80 to 90% | inhibition in vivo at 25 ppm [2, 12]: 80 to 90% | inhibition in vivo at 50 ppm [2, 13]: 100%

C=CCON(C=O)CC=C [Compound C8]
inhibition in vivo at 30 mg/kg [1, 10]: 100% | inhibition in vivo at 50 mg/kg [1, 11]: 100% | inhibition in vivo at 25 ppm [2, 12]: 100% | inhibition in vivo at 50 ppm [2, 13]: 100% | Change of E.P.G. 21st day ([2]; chicken, 25 ppm in feed): 0 | Change of E.P.G. 21st day ([2]; chicken, 50 ppm in feed): 0

C=CCNOCCC [Compound D2, N-allyl-0-propylhydroxylamine]
inhibition in vivo at 30 mg/kg [1, 10]: 100% | inhibition in vivo at 25 ppm [2, 12]: 80 to 90% | inhibition in vivo at 50 ppm [2, 13]: 100%

C=CCNOCC=C [Compound D4]
inhibition in vivo at 15 mg/kg [1, 14]: 80 to 90% | inhibition in vivo at 30 mg/kg [1, 10]: 100% | inhibition in vivo at 25 ppm [2, 12]: 80 to 90% | inhibition in vivo at 50 ppm [2, 13]: 100%

C#CCONCC=C [Compound D5]
inhibition in vivo at 15 mg/kg [1, 14]: 100% | inhibition in vivo at 30 mg/kg [1, 10]: 100% | Anthelmintic effect after 48 hours ([1]; chicken, 15 mg/Kg oral in gelatin capsule, chickens No.1-3, 15 mg/kg): +++ (100%) | Anthelmintic effect after 48 hours [1, 10]: +++ (100%) | inhibition in vivo at 25 ppm [2, 12]: 80 to 90% | inhibition in vivo at 50 ppm [2, 13]: 100%

CC=CCNOCC [Compound D7]
inhibition in vivo at 30 mg/kg [1, 10]: 100%

C=CCONCC=CC [Compound D8]
inhibition in vivo at 15 mg/kg [1, 14]: 80 to 90% | inhibition in vivo at 30 mg/kg [1, 10]: 100%

C#CCNOCCC [Compound D11]
inhibition in vivo at 30 mg/kg [1, 10]: 100%

C#CCNOCC=C [Compound D13, N-propargyl-O-allylhydroxylamine]
inhibition in vivo at 15 mg/kg [1, 14]: 80 to 90% | inhibition in vivo at 30 mg/kg [1, 10]: 100% | inhibition in vivo at 20 mg/kg ([3]; Dirofilaria immitis, sc, 240 h, dog, 20 mg/Kg x 3, subcutaneous injection, read-out: Effect on adult filaria: Percent of worms killed): 63% | inhibition in vivo at 20 mg/kg ([3]; Dirofilaria immitis, sc, 240 h, dogs, administration of 20 mg/Kg repeated three times, given as about 50% or more, read-out: anthelmintic effect against adult filaria): ≥ 50% | Number of microfilaria/20µl On 10th day after the administration ([3]; dog, 20 mg/Kg x 3, subcutaneous injection): 0 /20µl | Effect on adult filaria: Number of worms killed/ Total parasite ([3]; dog, 20 mg/Kg x 3, subcutaneous injection, 20 mg/kg): 21/33 and 20/30 | Number of microfilaria/20µl Before administration ([3]; dog, before 20 mg/Kg x 3 subcutaneous injection (baseline)): 33 /20µl and 26 /20µl | anthelmintic effect against microfilaria (mf) ([3]; dogs, administration of 20 mg/Kg repeated three times): marked anthelmintic effect
